Measured values taken from ChEMBL document CHEMBL1201862, “PubChem BioAssay data set” (2004).
Active and inactive are the calls of the source.

How the values were obtained:
[1] = target: T1, High affinity choline transporter 1 (Homo sapiens, UniProt Q9GZV3); assay: human choline transporter blockers, potency – cell-based, 5-point CRC, membrane potential dye, dose response (AID 504840); assay type: functional
T1 sequence (Q9GZV3 whole entry): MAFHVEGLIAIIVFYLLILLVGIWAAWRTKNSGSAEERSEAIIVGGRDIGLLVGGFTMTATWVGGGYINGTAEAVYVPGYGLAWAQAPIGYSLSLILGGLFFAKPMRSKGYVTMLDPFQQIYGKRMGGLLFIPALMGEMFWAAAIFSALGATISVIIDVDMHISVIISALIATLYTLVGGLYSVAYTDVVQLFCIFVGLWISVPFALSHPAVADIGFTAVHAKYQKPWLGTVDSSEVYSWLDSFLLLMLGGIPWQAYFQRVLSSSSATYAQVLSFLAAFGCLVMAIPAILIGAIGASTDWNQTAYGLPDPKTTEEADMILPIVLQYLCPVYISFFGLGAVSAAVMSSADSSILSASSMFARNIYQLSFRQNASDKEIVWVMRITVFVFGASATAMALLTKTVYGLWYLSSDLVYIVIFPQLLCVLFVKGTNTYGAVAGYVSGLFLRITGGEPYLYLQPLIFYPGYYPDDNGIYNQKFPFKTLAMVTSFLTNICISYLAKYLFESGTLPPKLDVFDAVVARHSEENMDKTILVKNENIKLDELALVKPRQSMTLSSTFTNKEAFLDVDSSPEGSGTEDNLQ

CAAX prenyl protease 2 = target: T2, CAAX prenyl protease 2 (Saccharomyces cerevisiae S288c, UniProt Q03530); assay type: biochemical
T2 sequence (Q03530 whole entry): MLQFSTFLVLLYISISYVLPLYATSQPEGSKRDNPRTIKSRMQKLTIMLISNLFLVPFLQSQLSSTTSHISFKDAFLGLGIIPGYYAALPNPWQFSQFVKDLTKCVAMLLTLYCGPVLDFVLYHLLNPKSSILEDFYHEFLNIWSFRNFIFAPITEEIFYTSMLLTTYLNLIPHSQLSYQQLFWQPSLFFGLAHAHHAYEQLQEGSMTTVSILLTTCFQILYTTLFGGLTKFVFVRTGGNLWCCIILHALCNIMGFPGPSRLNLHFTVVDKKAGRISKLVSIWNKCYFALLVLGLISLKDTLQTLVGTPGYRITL

[2] = Luminescence Cell-Based Dose Retest to Confirm Inhibitors of Cancer Stem Cells. [Related pubchem assays (depositor defined):AID2717, AID2721]; assay type: functional; conditions: Homo sapiens
[3] = target: Heat shock protein HSP 90-alpha (Homo sapiens, UniProt P07900); assay type: functional, organism-based
HeLa = assay: ATP-based viability loss in HeLa cells – cell-based, CellTiter-Glo luminescence, cherry-pick samples, cytotoxicity control for MITF activator project, dose response (AID 540259); assay type: functional; conditions: Homo sapiens
[4] = target: T3, Oxysterols receptor LXR-beta (Homo sapiens, UniProt P55055); assay type: functional, cell-based;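 also: agonist activity at LXR measured by a cell-based luminescence readout across a dose range, run as a counterscreen for daf-12 agonists; HEK293 cells with Gal4-LXR fusion and GAL4-driven luciferase reporter; potency for activation of Gal4-LXR reporter so compounds are agonists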
T3 sequence (P55055 whole entry): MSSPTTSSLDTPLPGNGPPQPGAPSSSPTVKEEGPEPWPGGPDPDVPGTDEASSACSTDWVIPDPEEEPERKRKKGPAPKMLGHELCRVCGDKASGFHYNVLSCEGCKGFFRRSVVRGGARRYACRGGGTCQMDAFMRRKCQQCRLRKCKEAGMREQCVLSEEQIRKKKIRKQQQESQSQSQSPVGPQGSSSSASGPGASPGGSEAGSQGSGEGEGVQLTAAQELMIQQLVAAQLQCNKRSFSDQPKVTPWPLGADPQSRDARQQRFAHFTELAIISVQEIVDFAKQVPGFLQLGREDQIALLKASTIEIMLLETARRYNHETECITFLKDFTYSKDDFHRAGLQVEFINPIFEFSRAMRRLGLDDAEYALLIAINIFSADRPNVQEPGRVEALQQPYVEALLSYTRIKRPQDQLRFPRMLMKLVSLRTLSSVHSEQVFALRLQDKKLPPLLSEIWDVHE

H4 = assay: Luminescence Cell-Based Dose Response HTS to Identify Activators of 5'UTR Stem-Loop Driven Prion Protein mRNA Translation in H4 Neuroglioblastoma Cells. [Related pubchem assays: 1829 (Project Summary), 1814 (Primary HTS)]; assay type: functional; conditions: Homo sapiens
cells [5] = assay type: functional, cell-based
cells [6] = assay type: functional, cell-based; remark: listed apart in the source
BJ [7] = assay: BJ-TERT fibroblast viability loss – cell-based, RAS-independent, luminescence, dose response (AID 1933); assay type: functional; conditions: Homo sapiens
BJ [8] = assay: cells; assay type: functional, cell-based; conditions: Homo sapiens
BJ [9] = assay: BJ-TERT-LT-ST fibroblast viability loss – cell-based, RAS-independent, luminescence, dose response (AID 1935); assay type: functional; conditions: Homo sapiens;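 also: BJ fibroblasts immortalized with TERT plus LT and ST oncogenes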
[10] = DRD fibroblast viability loss – cell-based, non-viral oncogenic, luminescence, dose response (AID 1934); assay type: functional; conditions: Homo sapiens
[11] = HEK-293T cell viability reduction – luminescence, B-cell screen hits, cytotoxicity control for BCR NF-kB inhibitor project, dose response (AID 489021); assay type: functional, cell-based;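 also: HEK-293T cells carrying an NF-kB luciferase reporter; cells exposed to compound for about 14 hours before viability readout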
Vero = assay: cells; assay type: functional; conditions: Chlorocebus sabaeus
[12] = target: Glucose-6-phosphate 1-dehydrogenase (Homo sapiens, UniProt P11413); assay: inhibition of Homo sapiens G6PD, dose series – biochemical, fluorescence, selectivity assay for P. falciparum G6PD inhibitor project, dose response (AID 504792); assay type: functional
Genome polyprotein = Genome polyprotein (dengue virus type 2, UniProt P29990); assay: flavivirus cap methylation enzyme inhibition – biochemical, confirmation dose response, primary screen (AID 588689); assay type: functional
[13] = target: T4, Apoptotic protease-activating factor 1 (Homo sapiens, UniProt O14727); assay type: functional
T4 sequence (O14727 whole entry): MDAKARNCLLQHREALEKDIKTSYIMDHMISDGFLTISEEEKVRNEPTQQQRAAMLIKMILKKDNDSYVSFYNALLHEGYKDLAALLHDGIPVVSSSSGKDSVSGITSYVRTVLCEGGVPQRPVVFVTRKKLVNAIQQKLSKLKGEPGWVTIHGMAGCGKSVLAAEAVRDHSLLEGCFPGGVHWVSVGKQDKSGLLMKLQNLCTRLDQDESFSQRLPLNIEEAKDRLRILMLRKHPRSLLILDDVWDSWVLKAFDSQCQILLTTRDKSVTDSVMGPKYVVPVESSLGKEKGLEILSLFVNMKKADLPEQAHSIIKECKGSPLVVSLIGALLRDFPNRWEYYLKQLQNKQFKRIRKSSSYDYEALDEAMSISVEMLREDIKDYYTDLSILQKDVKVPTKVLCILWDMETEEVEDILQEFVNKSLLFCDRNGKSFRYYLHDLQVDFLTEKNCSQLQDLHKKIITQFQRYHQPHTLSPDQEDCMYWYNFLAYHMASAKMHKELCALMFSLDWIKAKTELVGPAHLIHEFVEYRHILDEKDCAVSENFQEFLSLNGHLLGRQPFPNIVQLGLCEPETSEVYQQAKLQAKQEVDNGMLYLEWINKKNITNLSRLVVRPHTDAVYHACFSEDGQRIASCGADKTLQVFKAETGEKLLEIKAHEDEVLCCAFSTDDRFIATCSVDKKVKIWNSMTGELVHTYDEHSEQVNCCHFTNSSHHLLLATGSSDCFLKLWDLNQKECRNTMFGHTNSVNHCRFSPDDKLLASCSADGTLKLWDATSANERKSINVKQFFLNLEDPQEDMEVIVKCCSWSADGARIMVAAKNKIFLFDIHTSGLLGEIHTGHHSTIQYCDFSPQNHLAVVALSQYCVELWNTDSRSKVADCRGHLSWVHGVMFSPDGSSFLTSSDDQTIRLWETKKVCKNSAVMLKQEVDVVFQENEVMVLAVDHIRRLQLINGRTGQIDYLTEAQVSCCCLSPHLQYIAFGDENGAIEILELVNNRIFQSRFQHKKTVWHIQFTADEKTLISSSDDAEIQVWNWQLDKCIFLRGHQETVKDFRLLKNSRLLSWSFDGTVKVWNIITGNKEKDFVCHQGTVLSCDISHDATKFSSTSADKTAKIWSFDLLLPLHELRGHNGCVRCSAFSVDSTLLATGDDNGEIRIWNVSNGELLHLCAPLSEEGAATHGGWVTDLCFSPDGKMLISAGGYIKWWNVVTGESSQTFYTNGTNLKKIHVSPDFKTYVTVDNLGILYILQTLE

[14] = target: T5, Carboxy-terminal domain RNA polymerase II polypeptide A small phosphatase 1 (Homo sapiens, UniProt Q9GZU7); assay: CTDSP1 inhibitors, concentration-response, biochemical, absorbance readout, ultra-high-throughput screen actives (AID 540297); assay type: functional
T5 sequence (Q9GZU7 whole entry): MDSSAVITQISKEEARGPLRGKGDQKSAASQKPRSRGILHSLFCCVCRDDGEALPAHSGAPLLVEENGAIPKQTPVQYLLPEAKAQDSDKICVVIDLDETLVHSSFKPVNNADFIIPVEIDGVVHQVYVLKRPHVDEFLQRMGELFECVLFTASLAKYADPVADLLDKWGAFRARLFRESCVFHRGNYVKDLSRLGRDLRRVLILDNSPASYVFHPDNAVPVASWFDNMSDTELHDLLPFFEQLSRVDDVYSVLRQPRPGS

Chain of Glucose-6-phosphate 1-dehydrogenase (P11413 whole entry): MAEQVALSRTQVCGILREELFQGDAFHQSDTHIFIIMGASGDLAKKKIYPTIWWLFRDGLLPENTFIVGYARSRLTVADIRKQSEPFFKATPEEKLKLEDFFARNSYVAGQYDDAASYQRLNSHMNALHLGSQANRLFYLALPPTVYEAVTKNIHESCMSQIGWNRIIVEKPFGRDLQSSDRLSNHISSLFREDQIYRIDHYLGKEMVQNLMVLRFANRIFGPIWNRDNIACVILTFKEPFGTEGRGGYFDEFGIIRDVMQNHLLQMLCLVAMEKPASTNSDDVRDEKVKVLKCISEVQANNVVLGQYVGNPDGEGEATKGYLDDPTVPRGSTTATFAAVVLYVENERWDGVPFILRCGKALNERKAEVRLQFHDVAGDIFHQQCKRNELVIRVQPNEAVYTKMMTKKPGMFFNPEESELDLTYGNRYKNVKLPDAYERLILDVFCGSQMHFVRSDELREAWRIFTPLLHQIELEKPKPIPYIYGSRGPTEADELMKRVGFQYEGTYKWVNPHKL
Chain of Genome polyprotein (P29990 2492-3391 limits assumed): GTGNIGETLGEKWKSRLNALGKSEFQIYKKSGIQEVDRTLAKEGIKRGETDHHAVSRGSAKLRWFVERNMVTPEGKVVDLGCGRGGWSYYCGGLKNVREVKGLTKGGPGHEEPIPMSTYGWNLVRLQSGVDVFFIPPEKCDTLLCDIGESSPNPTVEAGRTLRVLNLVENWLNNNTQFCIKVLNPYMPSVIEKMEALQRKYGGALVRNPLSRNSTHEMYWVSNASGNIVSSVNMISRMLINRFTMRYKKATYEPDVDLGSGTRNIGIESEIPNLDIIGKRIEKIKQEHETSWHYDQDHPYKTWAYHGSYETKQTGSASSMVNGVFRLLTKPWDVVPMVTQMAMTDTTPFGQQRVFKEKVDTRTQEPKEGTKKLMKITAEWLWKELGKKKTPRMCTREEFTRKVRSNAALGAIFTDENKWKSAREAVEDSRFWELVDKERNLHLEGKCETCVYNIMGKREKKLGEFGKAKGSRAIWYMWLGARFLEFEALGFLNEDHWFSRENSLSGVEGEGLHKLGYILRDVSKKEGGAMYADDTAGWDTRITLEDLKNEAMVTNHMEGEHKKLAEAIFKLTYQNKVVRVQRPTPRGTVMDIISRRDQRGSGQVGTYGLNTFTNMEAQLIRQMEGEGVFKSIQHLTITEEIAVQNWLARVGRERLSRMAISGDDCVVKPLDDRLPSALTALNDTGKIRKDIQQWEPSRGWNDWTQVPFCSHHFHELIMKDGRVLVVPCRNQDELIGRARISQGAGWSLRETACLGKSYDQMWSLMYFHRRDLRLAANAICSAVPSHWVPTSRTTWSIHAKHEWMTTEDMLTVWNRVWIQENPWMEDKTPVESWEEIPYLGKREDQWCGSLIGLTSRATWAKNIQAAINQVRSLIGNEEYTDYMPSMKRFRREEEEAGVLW

Fc1ccc(-c2nc3c(-c4ccccc4)cnn3cc2CCN2CCOCC2)cc1
IC50 [1]: 13.2 µM (active)

CN1CCN(C(=O)c2ccc(-c3cccs3)s2)CC1
AC50 (CAAX prenyl protease 2): 32.5 µM (active)

Cc1ccc(N=Nc2ccc(O)cc2)c(Br)c1
AC50 [2]: 6.26 µM (active)
AC50 [3]: 7.83 µM (active)
AC50 (HeLa): 39.2 µM (active)
EC50 [4]: > 67.5 µM (inactive)

CCCCc1ccc(NC(S)=NCC2CCCO2)cc1 (configuration not stated)
IC50 [1]: 15.8 µM (active)

O=C(CCCc1ccccc1)NC12CC3CC(CC(C3)C1)C2
EC50 (H4): > 120 µM (not active)
EC50 [4]: > 67.5 µM (inactive)

Cc1cc(N/C=C/C(=O)c2ccc(Br)cc2)no1
EC50 (cells [5]): > 350 µM (not active)
EC50 (cells [6]): 59.3 µM (active)

COc1ccc(/C=N/n2cnc3c4cc(F)ccc4nc-3c2O)cc1CN1CCCC1
EC50 (BJ [7]): 5.03 µM (inconclusive)
EC50 (BJ [8]): 9.17 µM (inconclusive)
EC50 (BJ [9]): 4.92 µM (active)
EC50 [10]: 5.47 µM (inconclusive)

O=C(C1=NN[C@@H]2C(=O)N(c3cccc(C(F)(F)F)c3)C(=O)[C@H]12)C(c1ccccc1)c1ccccc1
EC50 (cells [5]): > 350 µM (not active)
EC50 (cells [6]): > 350 µM (not active)

CCOc1cc2nc(-c3ccc(OC)c(OC)c3)nc(N3CCOCC3)c2cc1OC
IC50 [11]: > 80 µM (inactive)

CC(C)N1CCN(Cc2ccc(OCc3ccccc3)cc2)CC1CCO (configuration not stated)
AC50 [2]: 3.36 µM (active)
AC50 (CAAX prenyl protease 2): 72.9 µM (active)

CCN(Cc1ccccc1)S(=O)(=O)c1ccc(C(=O)N(CCCN(C)C)c2nc3ccc(F)cc3s2)cc1
CC50 (Vero): > 25 µM (active)

CCn1c(=O)c2cc(C(=O)NC(C)C)sc2c2ccccc21
IC50 [11]: 27.6 µM (inactive)

CCOC(=O)c1c(-c2ccc(C)cc2C)csc1NC(=O)CSc1nnnn1C
CC50 (Vero): 23.2 µM (active)

Cc1ccc(-n2ncc3ccccc3c2=O)cc1Cl
EC50 [4]: > 67.6 µM (inactive)

CCCCCCN1C[C@@H](n2cc(COC(=O)c3ccccc3)nn2)[C@H](O)C[C@@H]1c1ccc(C)cc1
CC50 (Vero): > 25 µM (active)

O=C(O)C(Cc1ccccc1)N1C(=O)C=CC1=O (configuration not stated)
IC50 [12]: > 80 µM (inactive)
IC50 (Genome polyprotein): > 100 µM (active)

C#CCN(Cc1ccccc1)S(=O)(=O)C=C
IC50 [11]: > 80 µM (inactive)

Cc1cc(C)c(S(=O)(=O)/N=C2\C=C(NS(=O)(=O)c3ccccc3)C(=O)c3ccccc32)c(C)c1
IC50 [13]: 31.1 µM (active)

Cc1ccc(CSc2nnc(CCCCCNC(=O)OC(C)(C)C)o2)cc1
EC50 (cells [5]): > 350 µM (not active)
EC50 (cells [6]): > 350 µM (not active)

CCOc1ccc(/C=C2\SC(=S)N(CCC(=O)Nc3ccc(C(=O)O)cc3)C2=O)cc1
IC50 [11]: > 80 µM (inactive)
IC50 [14]: 1.88 µM (active)

O=C(/C=C/c1ccccc1)NCCc1nc2ccccc2[nH]1
EC50 (cells [5]): > 350 µM (not active)
EC50 (cells [6]): > 350 µM (not active)

CN(C)c1ccc(N=Nc2nccs2)cc1
EC50 [4]: > 67.4 µM (inactive)

Sc1nc2c[nH]c(S)nc-2n1
IC50 [12]: > 80 µM (inactive)
